{
  "source": "patent US20220323390A1",
  "about": "“DIETARY SUPPLEMENT TO PROMOTE GUT HEALTH” (TERRAGENICS NUTRITION, INC., priority 2019, published 2022)",
  "assay_type_in_all_cases": "cell-based, human",
  "key": {"[1]": {"system": "Caco-2/HT29-MTX co-cultures", "test": "Transepithelial electrical resistance (TEER) of TNFα/IFNγ-treated co-cultures given colonic batch samples", "settings": "TNFα/IFNγ stimulation", "excerpt": "Caco-2, when seeded on suitable supports, spontaneously differentiate Into mature enterocyte-like cells, characterized by polarization, presence of villi, formation of domes, presence of tight junctions and vectorial transport and expression of apical brush-border enzymes (reviewed by Sambuy, Y., et al. (2005) Cell Biology and Toxicology. 21: 1-26). The mucus layer is mimicked by co-culturing Caco-2 cells with HT29-MTX cells, a mucin producing human cell line. This model is considered a useful in vitro intestinal model.\nBarrier function was evaluated by measuring TEER and expression of tight junction and mucin genes in the co-culture model using TNF alpha/IFN gamma as an inflammatory insult. Inulin and sodium butyrate were used as positive controls. The test products were administered at three different concentrations. […]\nCaco-2/HT29-MTX monolayers were cultured for 14 days, with three medium changes/week, until a functional cell monolayer with a transepithelial electrical resistance (TEER) was obtained. […] Before treatment, the TEER of the Caco-2/HT29-MTX monolayers was measured (0 h time point). The TEER of an empty insert was subtracted from all readings to account for the residual electrical resistance of an insert. […] Cells were treated for 48 h and the TEER was measured at 24 h (=24 h time point) and 48 h (=48 h time point). […]\nTEER was measured again at 24 h and 48 h of incubation. […]"}, "claudin-1": {"system": "claudin-1", "test": "qPCR gene expression of claudin-1 in Caco-2/HT29-MTX co-culture", "settings": "48 h; compared to the TNFα/IFNγ control", "method": "(§1) Caco-2/HT29-MTX monolayers were cultured for 14 days, with three medium changes/week, until a functional cell monolayer with a transepithelial electrical resistance (TEER) was obtained. Cells were maintained in Dulbecco's Modified Eagle Medium (DMEM) containing glucose and glutamine and supplemented with HEPES and 20% (v/v) heat-inactivated (HI) fetal bovine serum (FBS). Before treatment, the TEER of the Caco-2/HT29-MTX monolayers was measured (0 h time point). The TEER of an empty insert was subtracted from all readings to account for the residual electrical resistance of an insert. The apical compartment (containing the Caco-2/HT29-MTX cells) was filled with sterile-filtered (0.22 μm) colonic batch suspensions. […] Cells were treated for 48 h and the TEER was measured at 24 h (=24 h time point) and 48 h (=48 h time point). […]\n(§2) After 48 h, cells were lysed in RNA lysis buffer, centrifuged and the […] collected. qPCR is performed for tight junction genes (claudin-1, -2, -3 and -4, and occludin) and mucin genes (mucin 3); 2 housekeeping genes were Included. […] Mucins can be measured as disclosed for example in Leteutre, E. et al, Biology of the Cell 96 (2004) 145-151. Mucin turnover can be assessed as described for example in Schneider, H. et al, Nature Scientific Reports | (2018) 8:5760 | DOI:10.1038/s41598-018-24148-x. […]"}, "claudin-3": {"system": "claudin-3", "test": "qPCR gene expression of claudin-3 in Caco-2/HT29-MTX co-culture", "settings": "48 h; compared to the TNFα/IFNγ control", "method": "as §1, §2"}, "claudin-4": {"system": "claudin-4", "test": "qPCR gene expression of claudin-4 in Caco-2/HT29-MTX co-culture", "settings": "48 h; compared to the TNFα/IFNγ control", "method": "as §1, §2"}, "occludin": {"system": "occludin", "test": "qPCR gene expression of occludin in Caco-2/HT29-MTX co-culture", "settings": "48 h; compared to the TNFα/IFNγ control", "method": "as §1, §2"}, "claudin-2": {"system": "claudin-2", "test": "qPCR gene expression of claudin-2 in Caco-2/HT29-MTX co-culture", "settings": "48 h; compared to the TNFα/IFNγ control", "method": "as §1, §2"}, "mucin-3": {"system": "mucin-3", "test": "qPCR gene expression of mucin-3 in Caco-2/HT29-MTX co-culture", "settings": "48 h; compared to the TNFα/IFNγ control", "method": "as §1, §2"}},
  "data": [
    {"smiles": "CCCC(=O)[O-].[Na+]", "note": "[Sodium butyrate]", "values": [
      {"measurement": "decrease in TEER", "setting": "[1]; 24 h of incubation", "value": "approximately 80%"},
      {"measurement": "TEER relative to initial value", "setting": "[1]; 48 h of incubation", "value": "increased the TEER above its initial value"},
      {"measurement": "expression of claudin-1", "setting": "claudin-1", "value": "No effect"},
      {"measurement": "expression of claudin-3", "setting": "claudin-3", "value": "increased the expression"},
      {"measurement": "expression of claudin-4", "setting": "claudin-4", "value": "increased the expression"},
      {"measurement": "expression of occludin", "setting": "occludin", "value": "increased the expression"},
      {"measurement": "expression of claudin-2", "setting": "claudin-2", "value": "decreased the expression"},
      {"measurement": "expression of mucin-3", "setting": "mucin-3", "value": "strongly increased the expression"}
    ]}
  ]
}
